Results from ChEMBL document CHEMBL4837225, “Water-soluble derivatives of evodiamine: Discovery of evodiamine-10-phosphate as an orally active antitumor lead compound” (Eur J Med Chem, 2021).
Values after ≈ are worked out from the molar mass of the structure shown. Active and inactive are the calls of the source. The calls are words filed in the database; no cut-off is given here.

How the values were obtained:
[1] = Solubility of the compound in double distilled water; assay type: physicochemical
[2] = molecular target: DNA topoisomerase 2-alpha (Homo sapiens) (UniProt P11388); assay: Inhibition of TOP2 (unknown origin) assessed as formation of short DNA fragments using supercoiled plasmid DNA at 100 uM by ethidium bromide staining based gel
MDA-MB-231 = assay: Antiproliferative activity against human MDA-MB-231 cells assessed as inhibition of cell proliferation incubated for 72 hrs by CCK8 assay; assay type: functional, cell-based; conditions: MDA-MB-231, 72 h
A549 = assay: Antiproliferative activity against human A549 cells assessed as inhibition of cell proliferation incubated for 72 hrs by CCK8 assay; assay type: functional, cell-based; conditions: A549, 72 h
HCT-116 [3] = assay: Antiproliferative activity against human HCT-116 cells assessed as inhibition of cell proliferation incubated for 72 hrs by CCK8 assay; assay type: functional, cell-based; conditions: HCT-116, 72 h
[4] = molecular target: T1, DNA topoisomerase 1 (Homo sapiens) (UniProt P11387); assay: Inhibition of TOP1 (unknown origin) assessed as decrease in relaxation of supercoiled DNA using pBR322 plasmid DNA as substrate at 100 uM by ethidium bromide staining based gel electrophoresis
T1 sequence (whole entry): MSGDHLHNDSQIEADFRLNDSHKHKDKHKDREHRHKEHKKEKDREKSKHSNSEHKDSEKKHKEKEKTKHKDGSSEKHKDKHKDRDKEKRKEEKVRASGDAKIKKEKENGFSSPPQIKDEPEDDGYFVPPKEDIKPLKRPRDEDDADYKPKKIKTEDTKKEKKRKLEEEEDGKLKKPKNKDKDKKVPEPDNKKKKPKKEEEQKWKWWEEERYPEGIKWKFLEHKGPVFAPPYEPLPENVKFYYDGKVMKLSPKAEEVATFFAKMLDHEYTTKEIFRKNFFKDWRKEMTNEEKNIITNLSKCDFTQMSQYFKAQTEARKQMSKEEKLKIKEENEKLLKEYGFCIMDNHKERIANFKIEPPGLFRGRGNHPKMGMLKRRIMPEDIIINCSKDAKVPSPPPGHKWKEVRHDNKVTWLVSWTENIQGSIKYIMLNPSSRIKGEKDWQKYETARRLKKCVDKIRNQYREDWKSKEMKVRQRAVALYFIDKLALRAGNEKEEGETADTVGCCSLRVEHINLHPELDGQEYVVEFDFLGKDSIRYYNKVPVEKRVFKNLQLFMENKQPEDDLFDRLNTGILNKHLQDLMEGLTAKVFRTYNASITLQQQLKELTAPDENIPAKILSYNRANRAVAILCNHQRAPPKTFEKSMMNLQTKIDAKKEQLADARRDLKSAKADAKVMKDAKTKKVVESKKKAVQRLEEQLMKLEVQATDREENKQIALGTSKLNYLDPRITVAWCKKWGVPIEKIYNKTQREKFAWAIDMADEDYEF

HCT-116 [5] = assay: Antitumor activity against human HCT-116 cells xenografted in BALB/c nude mouse assessed as inhibition of tumor growth at 16 mg/kg/day, ip BID administered for 21 days measured by caliper; assay type: functional, organism-based; conditions: time 21.0 day
HCT-116 [6] = assay: Antitumor activity against human HCT-116 cells xenografted in BALB/c nude mouse assessed as inhibition of tumor growth at 150 mg/kg, po BID measured by caliper relative to control; assay type: functional; conditions: HCT-116, po, read-out: TGI
HCT-116 [7] = assay: Antitumor activity against human HCT-116 cells xenografted in BALB/c nude nude mouse assessed as tumor growth inhibition at 16 mg/kg/day, ip QD administered for 16 consecutive days measured by caliper relative to control; assay type: functional; conditions: HCT-116, ip, 384 h, time 16 day, read-out: TGI
HCT-116 [8] = assay: Antitumor activity against human HCT-116 cells xenografted in BALB/c nude mouse assessed as inhibition of tumor growth at 16 mg/kg, ip QD administered for 21 days measured by caliper; assay type: functional, organism-based; conditions: time 21.0 day
[9] = Toxicity in BALB/c nude nude mouse xenografted with human HCT-116 cells assessed as decrease in body weight at 0.5 mg/kg/day, ip QD administered for 16 consecutive days; assay type: organism-based; conditions: in vivo, 384 h, time 16 day
[10] = Toxicity in BALB/c nude mouse xenografted with human A549 cells assessed as morphological changes in liver at 150 mg/kg, po bid by H&E staining based light microscopic analysis; assay type: organism-based; conditions: in vivo
[11] = Toxicity in BALB/c nude mouse xenografted with human A549 cells assessed as morphological changes in kidney at 150 mg/kg, po bid by H&E staining based light microscopic analysis; assay type: organism-based; conditions: in vivo
HCT-116 [12] = assay: Antitumor activity against human HCT-116 cells xenografted in BALB/c nude mouse assessed as necrosis at 150 mg/kg, po bid by H&E staining based light microscopic analysis; assay type: functional, organism-based
HCT-116 [13] = assay: Antitumor activity against human HCT-116 cells xenografted in BALB/c nude mouse assessed as inhibition of tumor growth at 60 mg/kg, po BID administered for 21 days measured by caliper relative to control; assay type: functional; conditions: HCT-116, po, 504 h, time 21 day, read-out: TGI
[14] = Half life in mouse liver microsomes; assay type: ADME, Microsome

DNA topoisomerase 2-alpha (Homo sapiens), sequence (P11388 whole entry, the tested form may be a part): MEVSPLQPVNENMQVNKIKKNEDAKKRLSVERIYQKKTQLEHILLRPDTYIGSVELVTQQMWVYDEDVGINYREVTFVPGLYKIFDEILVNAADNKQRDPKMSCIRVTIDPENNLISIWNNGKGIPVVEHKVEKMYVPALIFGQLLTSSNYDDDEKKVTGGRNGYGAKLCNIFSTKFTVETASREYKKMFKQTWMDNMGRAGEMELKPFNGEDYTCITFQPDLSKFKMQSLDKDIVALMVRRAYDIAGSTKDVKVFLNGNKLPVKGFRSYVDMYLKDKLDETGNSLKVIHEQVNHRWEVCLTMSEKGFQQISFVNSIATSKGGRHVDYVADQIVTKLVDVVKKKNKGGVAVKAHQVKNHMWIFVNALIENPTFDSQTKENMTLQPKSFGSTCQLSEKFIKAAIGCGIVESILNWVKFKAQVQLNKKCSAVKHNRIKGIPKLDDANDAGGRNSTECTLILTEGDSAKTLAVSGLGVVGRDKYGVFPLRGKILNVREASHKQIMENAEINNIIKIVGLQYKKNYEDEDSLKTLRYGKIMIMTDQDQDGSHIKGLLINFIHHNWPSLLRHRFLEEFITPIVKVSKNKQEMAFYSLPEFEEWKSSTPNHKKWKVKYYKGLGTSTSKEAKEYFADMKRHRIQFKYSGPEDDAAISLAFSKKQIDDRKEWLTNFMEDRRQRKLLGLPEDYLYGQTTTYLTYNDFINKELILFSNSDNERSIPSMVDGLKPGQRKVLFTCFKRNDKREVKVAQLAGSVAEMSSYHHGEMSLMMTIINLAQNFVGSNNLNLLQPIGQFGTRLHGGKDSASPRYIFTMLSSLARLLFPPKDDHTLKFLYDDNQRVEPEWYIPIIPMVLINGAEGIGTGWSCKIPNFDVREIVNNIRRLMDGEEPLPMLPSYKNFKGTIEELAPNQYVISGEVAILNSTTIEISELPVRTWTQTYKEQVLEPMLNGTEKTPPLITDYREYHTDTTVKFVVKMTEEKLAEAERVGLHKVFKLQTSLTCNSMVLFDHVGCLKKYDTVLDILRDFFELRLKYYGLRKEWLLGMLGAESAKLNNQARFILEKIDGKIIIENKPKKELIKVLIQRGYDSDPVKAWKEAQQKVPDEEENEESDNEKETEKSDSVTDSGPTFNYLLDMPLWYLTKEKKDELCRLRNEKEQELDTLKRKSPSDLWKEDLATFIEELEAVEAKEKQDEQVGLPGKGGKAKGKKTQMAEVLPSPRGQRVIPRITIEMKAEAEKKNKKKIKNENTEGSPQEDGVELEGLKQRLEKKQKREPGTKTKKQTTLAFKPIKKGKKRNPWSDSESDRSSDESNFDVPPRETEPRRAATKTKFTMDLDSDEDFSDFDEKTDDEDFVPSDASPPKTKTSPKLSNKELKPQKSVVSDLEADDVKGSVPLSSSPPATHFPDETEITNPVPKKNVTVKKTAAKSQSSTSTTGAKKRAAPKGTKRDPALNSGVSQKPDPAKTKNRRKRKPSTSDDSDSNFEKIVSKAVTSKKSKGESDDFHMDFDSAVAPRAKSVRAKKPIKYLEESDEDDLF

Compound | solubility [1] | inhibition [2] | IC50 (MDA-MB-231) | IC50 (A549) | IC50 (HCT-116 [3]) | further results
CN1c2ccccc2C(=O)N2CCc3c([nH]c4ccc(NC(=O)CN)cc34)C21 (centres undefined) | 19 µg/mL (≈ 50.6 µM) | Active | 1200 nM | 3700 nM | 1600 nM | 
CC(C)[C@H](N)C(=O)Oc1ccc2[nH]c3c(c2c1)CCN1C(=O)c2ccccc2N(C)C31 (some centres undefined) | 18 µg/mL (≈ 43 µM) | Active | 49 nM | > 10000 nM | < 3 nM | inhibition [4]: Active
CN1c2ccccc2C(=O)N2CCc3c([nH]c4ccc(NC(=O)C(N)Cc5ccc(O)cc5)cc34)C21 (centres undefined) | 12 µg/mL (≈ 24.9 µM) | Active | 550 nM | > 10000 nM | 1260 nM | 
CC(N)C(=O)Nc1ccc2[nH]c3c(c2c1)CCN1C(=O)c2ccccc2N(C)C31 (centres undefined) | 28 µg/mL (≈ 71.9 µM) | Active | 520 nM | 4900 nM | 940 nM | 
CN1c2ccccc2C(=O)N2CCc3c([nH]c4ccc(NS(C)(=O)=O)cc34)C21 (centres undefined) | 29 µg/mL (≈ 73.1 µM) | Active | 190 nM | 720 nM | 460 nM | TGI (HCT-116 [5]): inactive
CN1c2ccccc2C(=O)N2CCc3c([nH]c4ccc(OS(N)(=O)=O)cc34)C21 (centres undefined) | 37 µg/mL (≈ 92.9 µM) | Active | 530 nM | 410 nM | 40 nM | 
CN1c2ccccc2C(=O)N2CCc3c([nH]c4ccc(OC(=O)CCC(=O)OCCN5CCCCC5)cc34)C21 (centres undefined) | 18 µg/mL (≈ 33.9 µM) | Active | 680 nM | 9220 nM | < 3 nM | 
CN1c2ccccc2C(=O)N2CCc3c([nH]c4ccc(NC(=O)C(N)CCC(N)=O)cc34)C21 (centres undefined) | 14 µg/mL (≈ 31.4 µM) | Active | > 10000 nM | > 10000 nM | 5800 nM | 
CN1c2ccccc2C(=O)N2CCc3c([nH]c4ccc(NC(=O)C5CCCN5)cc34)C21 (centres undefined) | 15 µg/mL (≈ 36.1 µM) | Active | > 10000 nM | > 10000 nM | > 10000 nM | 
CN1c2ccccc2C(=O)N2CCc3c([nH]c4ccc(OC(=O)[C@@H]5CCCN5)cc34)C21 (some centres undefined) | 30 µg/mL (≈ 72 µM) | Active | 1150 nM | 430 nM | 7 nM | inhibition in vivo at 150 mg/kg (HCT-116 [6]): 39%; inhibition in vivo at 16 mg/kg/day (HCT-116 [7]): 55%; Activity (HCT-116 [8]): inactive; Activity [9]: Toxic
CN1c2ccccc2C(=O)N2CCc3c([nH]c4ccc(OC(=O)[C@@H](N)COCc5ccccc5)cc34)C21 (some centres undefined) | 12 µg/mL (≈ 24.2 µM) | Active | > 10000 nM | > 10000 nM | 21 nM | inhibition [4]: Active
CC(O)C(N)C(=O)Nc1ccc2[nH]c3c(c2c1)CCN1C(=O)c2ccccc2N(C)C31 (centres undefined) | 11 µg/mL (≈ 26.2 µM) | Active | > 10000 nM | > 10000 nM | 1600 nM | 
CC(C)CC(N)C(=O)Nc1ccc2[nH]c3c(c2c1)CCN1C(=O)c2ccccc2N(C)C31 (centres undefined) | 14 µg/mL (≈ 32.4 µM) | Active | > 10000 nM | > 10000 nM | > 10000 nM | 
CN1c2ccccc2C(=O)N2CCc3c([nH]c4ccc(NC(=O)C(N)CO)cc34)C21 (centres undefined) | 20 µg/mL (≈ 49.3 µM) | Active | 870 nM | 6300 nM | 1900 nM | 
CN1c2ccccc2C(=O)N2CCc3c([nH]c4ccc(NC(=O)C(N)Cc5ccccc5)cc34)C21 (centres undefined) | 16 µg/mL (≈ 34.4 µM) | Active | > 10000 nM | > 10000 nM | 4400 nM | 
CN1c2ccccc2C(=O)N2CCc3c([nH]c4ccc(NC(=O)C5CCC(=O)N5)cc34)C21 (centres undefined) | 11 µg/mL (≈ 25.6 µM) | Active | > 10000 nM | > 10000 nM | > 10000 nM | 
CC[C@@]1(O)C(=O)OCc2c1cc1n(c2=O)Cc2cc3ccccc3nc2-1 [CAMPTOTHECIN] |  |  | 241 nM | 170 nM | 17 nM | 
CN1c2ccccc2C(=O)N2CCc3c([nH]c4ccc(OC(=O)CCC(=O)OCCN5CCOCC5)cc34)C21 (centres undefined) | 17 µg/mL (≈ 31.9 µM) | Active | 20 nM | > 10000 nM | < 3 nM | 
CSCCC(N)C(=O)Nc1ccc2[nH]c3c(c2c1)CCN1C(=O)c2ccccc2N(C)C31 (centres undefined) | 15 µg/mL (≈ 33.4 µM) | Active | 810 nM | > 10000 nM | 1600 nM | 
CN1c2ccccc2C(=O)N2CCc3c([nH]c4ccc(OC(=O)CCC(=O)O)cc34)C21 (centres undefined) | 15 µg/mL (≈ 35.8 µM) | inactive | 260 nM | 5490 nM | < 3 nM | 
CN1c2ccccc2C(=O)N2CCc3c([nH]c4ccc(N)cc34)C21 (centres undefined) | 10 µg/mL (≈ 31.4 µM) | Active | 1800 nM | 4800 nM | 390 nM | TGI (HCT-116 [5]): inactive; inhibition [4]: inactive
CN1c2ccccc2C(=O)N2CCc3c([nH]c4ccc(NC(=O)C(N)Cc5c[nH]c6ccccc56)cc34)C21 (centres undefined) | 12 µg/mL (≈ 23.8 µM) | Active | 520 nM | > 10000 nM | 1700 nM | 
CN1c2ccccc2C(=O)N2CCc3c([nH]c4ccc(OC(=O)[C@@H](N)CO)cc34)C21 (some centres undefined) | 24 µg/mL (≈ 59 µM) | Active | 2340 nM | 2610 nM | < 3 nM | inhibition [4]: Active
CNCC(=O)Nc1ccc2[nH]c3c(c2c1)CCN1C(=O)c2ccccc2N(C)C31 (centres undefined) | 25 µg/mL (≈ 64.2 µM) | Active | 1800 nM | > 10000 nM | 1400 nM | 
CN1c2ccccc2C(=O)N2CCc3c([nH]c4ccc(NC(=O)CCC(=O)O)cc34)C21 (centres undefined) | 16 µg/mL (≈ 38.2 µM) | Active | 530 nM | > 10000 nM | 1400 nM | 
CN1c2ccccc2C(=O)N2CCc3c([nH]c4ccc(NS(N)(=O)=O)cc34)C21 (centres undefined) | 23 µg/mL (≈ 57.9 µM) | Active | 840 nM | 5000 nM | 1100 nM | 
CN1c2ccccc2C(=O)N2CCc3c([nH]c4ccc(O)cc34)[C@H]21 | 11 µg/mL (≈ 34.4 µM) | Active | 94 nM | 280 nM | < 3 nM | Activity [10]: Non-Toxic; inhibition in vivo at 150 mg/kg (HCT-116 [6]): 57%; Activity [11]: Non-Toxic; Activity (HCT-116 [12]): Active; inhibition in vivo at 60 mg/kg (HCT-116 [13]): 24%; half-life [14]: 14.3 min
